# Measured values published in patent US11007274B2, “Compounds for medicinal applications” (Ausvir Therapeutics Pty LTD, priority 2015, dated 2021).
# Several values for one entry are separate records, joined by “and”; a condition that tells them apart may be missing. Identical values can stand only once. Like-named read-outs stand apart in the source and are kept apart here.
# Assays:
# [1] = test system: Florida/4/2006; assay: microbe, parasite or virus in culture; assay type: cell-based
# [2] = test system: CA/07/2009; assay: microbe, parasite or virus in culture; assay type: cell-based
# [3] = test system: Perth/16/2009; assay: microbe, parasite or virus in culture; assay type: cell-based
# [4] = test system: Duck/MN/1525/81; assay type: cell-based; details: Table 7
# [5] = line Neutral Red (Cytopathic effect/Toxicity)
# [6] = test system: Influenza A virus H5N1, Hong Kong/213/2003; assay: microbe, parasite or virus in culture; assay type: cell-based
# [7] = test system: Influenza A virus H7N9, A/Anhui/1/2003; assay type: cell-based
# [8] = test system: Influenza A virus H5N1, Hong Kong/213/2003; assay: microbe, parasite or virus in culture; assay type: cell-based; remark: listed apart in the source
# [9] = test system: Influenza A virus H7N9, A/Anhui/1/2003; assay type: cell-based; remark: listed apart in the source
# [10] = test system: A/PR/8 virus H1N1; assay: Viral Plaque Reduction Assay (Table 23); assay type: cell-based, influenza virus; details: Table 23, plaque reduction, read-out: EC50
# [11] = test system: B/Townsville/2/2011; assay: microbe, parasite or virus in culture; assay type: cell-based; details: unidentified influenza virus, read-out: EC50 B/Townsville/2/2011
# [12] = test system: A/Victoria/170/2012; assay: microbe, parasite or virus in culture; assay type: cell-based; details: unidentified influenza virus, read-out: EC50 A/Victoria/170/2012
# [13] = test system: A/Solomon Island/3/06; assay: microbe, parasite or virus in culture; assay type: cell-based; details: unidentified influenza virus, read-out: EC50 A/Solomon Island/3/06
# [14] = test system: A/Sydney/5/97; assay: microbe, parasite or virus in culture; assay type: cell-based; details: unidentified influenza virus, read-out: EC50 A/Sydney/5/97
# [15] = test system: A/Perth/261/2009; assay: microbe, parasite or virus in culture; assay type: cell-based; details: unidentified influenza virus, read-out: EC50 A/Perth/261/2009
# [16] = test system: A/Townsville/74/2011; assay: microbe, parasite or virus in culture; assay type: cell-based; details: unidentified influenza virus, read-out: EC50 A/Townsville/74/2011
# [17] = test system: A/Mississippi/03/01H274Y; assay type: cell-based, influenza virus
# [18] = test system: A/Victoria/503/06; assay: microbe, parasite or virus in culture; assay type: cell-based; details: unidentified influenza virus, read-out: EC50 A/Victoria/503/06
# [19] = test system: Influenza B virus, B/Florida/4/2006; assay: microbe, parasite or virus in culture; assay type: cell-based; details: Table 19, […], B/Florida/4/2006, read-out: EC50
# [20] = test system: Influenza B virus, B/Florida/4/2006; assay: microbe, parasite or virus in culture; assay type: cell-based
# [21] = test system: Influenza A virus H5N1, Duck/MN/1525/81; assay: microbe, parasite or virus in culture; assay type: cell-based
# [22] = test system: Influenza A virus H3N2, Perth/16/2009; assay: microbe, parasite or virus in culture; assay type: cell-based
# [23] = test system: Influenza A virus H1N1, California/07/2009; assay: microbe, parasite or virus in culture; assay type: cell-based
# [24] = in vitro
# [25] = test system: Influenza A virus H3N2, Perth/16/2009; assay: microbe, parasite or virus in culture; assay type: cell-based; details: read-out: EC90
# [26] = test system: Influenza A virus H1N1, California/07/2009; assay: microbe, parasite or virus in culture; assay type: cell-based; details: read-out: EC90
# [27] = test system: CA/07/2009 virus H1N1; assay: Viral Plaque Reduction Assay (Table 22); assay type: cell-based; details: Influenza A virus, Table 22, plaque reduction, read-out: EC50
# [28] = test system: PR8 influenza virus; assay: Viral clearance rates in the lung and nasal turbinates, weight loss (Table 6); assay type: in vivo, mice
compound,measurement,setting,value
"CC(=O)N[C@H]1[C@H]([C@H](OC(=O)NCCCCCCNC(=O)c2cc(C(=O)O)c(C(=O)NCCCCCCNC(=O)O[C@@H]([C@@H]3OC(C(=O)O)=C[C@H](N=C(N)N)[C@H]3NC(C)=O)[C@H](O)CO)cc2C(=O)O)[C@H](O)CO)OC(C(=O)O)=C[C@@H]1N=C(N)N [MD015, PK1 PYR(Z)2]",EC50,[1]; Table 7,2.1 nM
same,EC50 Florida/4/2006,[1]; Table 7,2.5 ng/mL
same,EC50,[2]; Table 7,6 nM
same,EC50 CA/07/2009,"[2]; Table 7, MDCK cell line",7 ng/mL
same,EC50,[3]; Table 7,6.7 nM
same,EC50 Perth/16/2009,[3]; Table 7,7.8 ng/mL
same,EC50,[4],0.34 nM
"CC(=O)N[C@H]1[C@H]([C@H](OC(=O)NCCCCCCNC(=O)c2cc(C(=O)NCCCCCCNC(=O)O[C@@H]([C@@H]3OC(C(=O)O)=C[C@H](N=C(N)N)[C@H]3NC(C)=O)[C@H](O)CO)c(C(=O)O)cc2C(=O)O)[C@H](O)CO)OC(C(=O)O)=C[C@@H]1N=C(N)N [MD016, PK2 PYR(Z)2]",EC50,[1],7 nM
same,EC50 Florida/4/2006,[1],8.2 ng/mL
same,EC50,[2],7.7 nM
same,EC50 CA/07/2009,[2],9 ng/mL
same,EC50,[3],2.8 nM
same,EC50 Perth/16/2009,[3],3.3 ng/mL
same,EC50,[4],0.51 nM
"CC(=O)N[C@H]1[C@H]([C@H](OC(=O)NCCCCCCCCNC(=O)[C@@H]2C[C@H](C(=O)NCCCCCCCCNC(=O)O[C@@H]([C@@H]3OC(C(=O)O)=C[C@H](N=C(N)N)[C@H]3NC(C)=O)[C@H](O)CO)C[C@H](C(=O)N[C@@H](CC(=O)NCS(=O)(=O)O)C(=O)NCS(=O)(=O)O)C2)[C@H](O)CO)OC(C(=O)O)=C[C@@H]1N=C(N)N [MD154, CHTCA(Z0)2-L-Asp(NHCH2SO3H)2]",EC50,[1]; Table 7,< 0.087 nM
same,EC50 Florida/4/2006,[1]; Table 7,<0.13 ng/mL
same,CC50,[5]; Table 9,>1.0 µg/mL
same,CC50,[5]; Table 10,>1.0 µg/mL
same,EC50,[2]; Table 7,6.06 nM
same,EC50 CA/07/2009,"[2]; Table 7, MDCK cell line",9 ng/mL
same,EC50,[6],<0.32 ng/mL
same,EC50,[3]; Table 7,< 0.087 nM
same,EC50 Perth/16/2009,[3]; Table 7,<0.13 ng/mL
same,EC90,[7],0.01 µg/mL
same,EC50,[4],< 0.087 nM
same,EC90,[8],<0.32 ng/mL
same,EC50,[9],<0.32 ng/mL
"CC(=O)N[C@H]1[C@H]([C@H](OC(=O)NCCCCNC(=O)[C@@H]2C[C@H](C(=O)NCCCCNC(=O)O[C@@H]([C@@H]3OC(C(=O)O)=C[C@H](N=C(N)N)[C@H]3NC(C)=O)[C@H](O)CO)C[C@H](C(=O)N[C@@H](CC(=O)O)C(=O)O)C2)[C@H](O)CO)OC(C(=O)O)=C[C@@H]1N=C(N)N [MD206, CHTCA(Zb)2-L-Asp]",EC50 Florida/4/2006,[1]; Table 7,>10000 ng/mL
same,EC50,"[1]; Table 7, cells of the nM column printed in μM",> 8400 nM
same,EC50,[2]; Table 7,1.68 nM
same,EC50 CA/07/2009,"[2]; Table 7, MDCK cell line",2 ng/mL
same,EC50,[3]; Table 7,6.1 nM
same,EC50 Perth/16/2009,[3]; Table 7,7.3 ng/mL
same,EC50,[4],0.59 nM
"CC(=O)N[C@H]1[C@H]([C@H](OC(=O)NCCCCNC(=O)c2cc(C(=O)NCCCCNC(=O)O[C@@H]([C@@H]3OC(C(=O)O)=C[C@H](N=C(N)N)[C@H]3NC(C)=O)[C@H](O)CO)c(C(=O)N[C@H](CC(=O)NCS(=O)(=O)O)C(=O)NCS(=O)(=O)O)cc2C(=O)N[C@H](CC(=O)NCS(=O)(=O)O)C(=O)NCS(=O)(=O)O)[C@H](O)CO)OC(C(=O)O)=C[C@@H]1N=C(N)N [MD219, PK2 PYR(Zb)2[(D-Asp)(NHCH2SO3H)2]2]",EC50,[1],0.99 nM
same,EC50 Florida/4/2006,[1],1.7 ng/mL
same,EC50,[2],2.92 nM
same,EC50 CA/07/2009,[2],5 ng/mL
same,EC50,[3],> 5800 nM
same,EC50 Perth/16/2009,[3],>10000 ng/mL
same,EC50,[4],0.29 nM
"CC(=O)N[C@H]1[C@H]([C@H](OC(=O)NCCCCCNC(=O)[C@@H]2C[C@H](C(=O)NCCCCCNC(=O)O[C@@H]([C@@H]3OC(C(=O)O)=C[C@H](N=C(N)N)[C@H]3NC(C)=O)[C@H](O)CO)C[C@H](C(=O)N[C@@H](CC(=O)O)C(=O)O)C2)[C@H](O)CO)OC(C(=O)O)=C[C@@H]1N=C(N)N [MD242, CHTCA(Zp)2-L-Asp]",EC50,[1]; Table 7,0.58 nM
same,EC50 Florida/4/2006,[1]; Table 7,0.71 ng/mL
same,EC50,[2]; Table 7,6.58 nM
same,EC50 CA/07/2009,"[2]; Table 7, MDCK cell line",8 ng/mL
same,EC50,[3]; Table 7,3.46 nM
same,EC50 Perth/16/2009,[3]; Table 7,4.2 ng/mL
same,EC50,[4],0.7 nM
"CC(=O)N[C@H]1[C@H]([C@H](OC(=O)NCCCCCCCCNC(=O)CC(CC(=O)N[C@H](CS(=O)(=O)O)C(=O)N[C@H](CS(=O)(=O)O)C(=O)N[C@H](CS(=O)(=O)O)C(=O)O)C(=O)NCCCCCCCCNC(=O)O[C@@H]([C@@H]2OC(C(=O)O)=C[C@H](N=C(N)N)[C@H]2NC(C)=O)[C@H](O)CO)[C@H](O)CO)OC(C(=O)O)=C[C@@H]1N=C(N)N (stereo partly drawn) [MD343, PK2 TCA(Z0)2-[D-Cya]3-OH]",EC50,[10],1.27 nM
"CC(=O)N[C@H]1C([C@H](OC(=O)NCCCCCCCCCNC(=O)[C@@H]2CC(C(=O)NCCCCCCNC(=O)O[C@H](C(O)CO)C3OC(C(=O)O)=C[C@H](NC(=N)N)[C@H]3NC(C)=O)C[C@H](C(=O)N[C@H](CC(=O)NC(CS(=O)(=O)O)C(=O)O)C(=O)N[C@H](CC(=O)NC(CS(=O)(=O)O)C(=O)O)C(=O)N[C@H](CC(=O)NC(CS(=O)(=O)O)C(=O)O)C(=O)O)C2)C(O)CO)OC(C(=O)O)=C[C@@H]1NC(=N)N (stereo partly drawn) [MD348, CHTCA(Z0)2-[D-Asp(D-Cyst)-D-Asp(D-Cyst)-D-Asp(D-Cyst)]-OH]",EC50,[11],0.28 nM
same,EC50,[12],0.83 nM
same,EC50,[13],0.016 nM
same,EC50,[14],1.26 nM
same,EC50,[15],0.35 nM
same,EC50,[16],0.06 nM
same,EC50,[17],0.27 nM
same,EC50,[18],4.5 nM
same,EC50,[10]; Influenza A virus,1.92 nM
"NC(=O)c1ncn([C@@H]2O[C@H](CO)[C@@H](O)[C@H]2O)n1 [Ribavirin, reference compound]",EC50,[19],10 µg/mL
same,EC50,[20],9.5 µg/mL
same,EC90,[21],2.3 µg/mL
same,EC50,[22],5 µg/mL
same,EC50,[23],2.5 µg/mL
same,CC50,"[24]; CC50, Table 9, line Neutral Red (Cytopathic effect/Toxicity)",> 1000 µg/mL
same,CC50,"[24]; CC50, Table 10, line Neutral Red (Cytopathic effect/Toxicity)",> 1000 µg/mL
same,CC50,"[24]; CC50, Table 11, line Neutral Red (Cytopathic effect/Toxicity)",> 320 µg/mL
same,CC50,"[24]; CC50, Table 12, line Neutral Red (Cytopathic effect/Toxicity)",> 320 µg/mL
same,CC50,"[24]; CC50, Table 13, line Neutral Red (Cytopathic effect/Toxicity)",> 320 µg/mL
same,CC50,"[24]; CC50, Table 14, line Neutral Red (Cytopathic effect/Toxicity)",> 320 µg/mL
same,CC50,"[24]; CC50, Table 15, line Neutral Red (Cytopathic effect/Toxicity)",> 320 µg/mL
same,CC50,"[24]; CC50, Table 16, line Neutral Red (Cytopathic effect/Toxicity)",> 320 µg/mL
same,CC50,"[24]; CC50, Table 18, line Neutral Red (Cytopathic effect/Toxicity)",> 320 µg/mL
same,CC50,"[24]; CC50, Table 19, Neutral Red (Cytopathic effect/Toxicity) rows",> 320 µg/mL
same,EC90,[25],4.4 µg/mL
same,EC90,[26],2.3 µg/mL
"CC(=O)N[C@H]1[C@H]([C@H](O)[C@H](O)CO)OC(C(=O)O)=C[C@@H]1N=C(N)N [Zanamivir, reference compound]",EC50,[27],0.00197 µg/mL and 5.93 nM
same,"lung viral titre, Group mean titres",[28]; Day 1,2.60 log10
same,"lung viral titre, Group mean titres",[28]; Day 3,4.28 log10
same,"lung viral titre, Group mean titres",[28]; Day 5,4.85 log10
same,"lung viral titre, Group mean titres",[28]; Day 7,4.72 log10
same,weight loss compared with PBS,"[28]; days 3, 4 and 5, Bonferroni post-test p<0.001",significantly different from PBS
same,"lung viral titre, Individual titres","[28]; mouse, in vivo",4.44 log10 and 4.66 log10 and 4.97 log10 (2×) and 4.19 log10 and 3.16 log10 and 4.84 log10 and 3.00 log10 and 5.77 log10 and 5.66 log10
same,EC50,[17],> 66 nM
same,EC50,[10]; Influenza A virus,10200 nM
